How the values were obtained:
Experiment in all cases: relative viability (nuclei count vs DMSO), 5 days (fraction); higher = more cells survive
Vemurafenib + Decitabine = compound: CCCS(=O)(=O)Nc1ccc(F)c(C(=O)c2c[nH]c3ncc(-c4ccc(Cl)cc4)cc23)c1F [Vemurafenib] + Nc1ncn([C@H]2C[C@H](O)[C@@H](CO)O2)c(=O)n1 [Decitabine] (partner 2 µM)
How it was run: (§1)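 Five library-drug doses in √10 steps were combined with a fixed anchor-drug dose, or a single drug was given alone, by pin tool to lung cancer cell lines in 1536-well plates the day after seeding. Nuclei were stained and counted after 5 days. Relative viability is the nuclei count in treated wells over that in vehicle wells, taken as the median of duplicate plates.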

Vemurafenib + Navitoclax = compound: CCCS(=O)(=O)Nc1ccc(F)c(C(=O)c2c[nH]c3ncc(-c4ccc(Cl)cc4)cc23)c1F [Vemurafenib] + CC1(C)CCC(c2ccc(Cl)cc2)=C(CN2CCN(c3ccc(C(=O)NS(=O)(=O)c4ccc(N[C@H](CCN5CCOCC5)CSc5ccccc5)c(S(=O)(=O)C(F)(F)F)c4)cc3)CC2)C1 [Navitoclax] (partner 0.5 µM)
How it was run: as §1

OSI-027 + Linsitinib = compound: COc1cccc2cc(-c3nc([C@H]4CC[C@H](C(=O)O)CC4)n4ncnc(N)c34)[nH]c12 [OSI-027] + C[C@]1(O)C[C@@H](c2nc(-c3ccc4ccc(-c5ccccc5)nc4c3)c3c(N)nccn32)C1 [Linsitinib] (partner 1 µM)
How it was run: as §1

Vemurafenib + Tozasertib = compound: CCCS(=O)(=O)Nc1ccc(F)c(C(=O)c2c[nH]c3ncc(-c4ccc(Cl)cc4)cc23)c1F [Vemurafenib] + Cc1cc(Nc2cc(N3CCN(C)CC3)nc(Sc3ccc(NC(=O)C4CC4)cc3)n2)n[nH]1 [Tozasertib] (partner 0.1 µM)
How it was run: as §1

Cell Line: A-427
- relative viability (Vemurafenib + Decitabine; first compound 0.03162 µM): 0.553
- relative viability (Vemurafenib + Decitabine; first compound 0.1 µM): 0.456
- relative viability (Vemurafenib + Decitabine; first compound 1 µM): 0.591
- relative viability (Vemurafenib + Navitoclax; first compound 0.03162 µM): 0.969
- relative viability (Vemurafenib + Navitoclax; first compound 0.1 µM): 0.887
- relative viability (Vemurafenib + Navitoclax; first compound 0.3162 µM): 0.977
- relative viability (Vemurafenib + Navitoclax; first compound 1 µM): 0.94
- relative viability (OSI-027 + Linsitinib; first compound 0.01 µM): 1.15
- relative viability (OSI-027 + Linsitinib; first compound 0.03162 µM): 1.08
- relative viability (OSI-027 + Linsitinib; first compound 0.1 µM): 1.05
- relative viability (OSI-027 + Linsitinib; first compound 0.3162 µM): 0.746
- relative viability (OSI-027 + Linsitinib; first compound 1 µM): 0.882
- relative viability (Vemurafenib + Tozasertib; first compound 0.03162 µM): 0.194
- relative viability (Vemurafenib + Tozasertib; first compound 0.1 µM): 0.203
- relative viability (Vemurafenib + Tozasertib; first compound 0.3162 µM): 0.238
- relative viability (Vemurafenib + Tozasertib; first compound 1 µM): 0.227

Cell Line: NCI-H1703
- relative viability (Vemurafenib + Navitoclax; first compound 0.03162 µM): 1.19
- relative viability (Vemurafenib + Navitoclax; first compound 0.1 µM): 1.24
- relative viability (Vemurafenib + Navitoclax; first compound 0.3162 µM): 0.863
- relative viability (Vemurafenib + Navitoclax; first compound 1 µM): 0.933
- relative viability (OSI-027 + Linsitinib; first compound 0.01 µM): 0.381
- relative viability (OSI-027 + Linsitinib; first compound 0.03162 µM): 0.788
- relative viability (OSI-027 + Linsitinib; first compound 0.1 µM): 0.767
- relative viability (OSI-027 + Linsitinib; first compound 0.3162 µM): 0.48
- relative viability (OSI-027 + Linsitinib; first compound 1 µM): 0.56

Cell Line: HCC-366
- relative viability (Vemurafenib + Decitabine; first compound 0.03162 µM): 0.332
- relative viability (Vemurafenib + Decitabine; first compound 0.1 µM): 0.327
- relative viability (Vemurafenib + Decitabine; first compound 1 µM): 0.333
- relative viability (Vemurafenib + Navitoclax; first compound 0.03162 µM): 0.997
- relative viability (Vemurafenib + Navitoclax; first compound 0.1 µM): 0.983
- relative viability (Vemurafenib + Navitoclax; first compound 1 µM): 1.03
- relative viability (OSI-027 + Linsitinib; first compound 0.01 µM): 0.632
- relative viability (OSI-027 + Linsitinib; first compound 0.03162 µM): 0.713
- relative viability (OSI-027 + Linsitinib; first compound 0.1 µM): 0.64
- relative viability (OSI-027 + Linsitinib; first compound 0.3162 µM): 0.445
- relative viability (OSI-027 + Linsitinib; first compound 1 µM): 0.0575
- relative viability (Vemurafenib + Tozasertib; first compound 0.03162 µM): 0.0795
- relative viability (Vemurafenib + Tozasertib; first compound 0.1 µM): 0.0611
- relative viability (Vemurafenib + Tozasertib; first compound 0.3162 µM): 0.0563
- relative viability (Vemurafenib + Tozasertib; first compound 1 µM): 0.0677

Cell Line: NCI-H661
- relative viability (Vemurafenib + Decitabine; first compound 0.03162 µM): 0.521
- relative viability (Vemurafenib + Decitabine; first compound 0.1 µM): 0.495
- relative viability (Vemurafenib + Decitabine; first compound 0.3162 µM): 0.567
- relative viability (Vemurafenib + Decitabine; first compound 1 µM): 0.625
- relative viability (OSI-027 + Linsitinib; first compound 0.01 µM): 0.511
- relative viability (OSI-027 + Linsitinib; first compound 0.03162 µM): 0.334
- relative viability (OSI-027 + Linsitinib; first compound 0.1 µM): 0.521
- relative viability (OSI-027 + Linsitinib; first compound 0.3162 µM): 0.364
- relative viability (OSI-027 + Linsitinib; first compound 1 µM): 0.269
- relative viability (Vemurafenib + Tozasertib; first compound 0.03162 µM): 0.325
- relative viability (Vemurafenib + Tozasertib; first compound 0.1 µM): 0.334
- relative viability (Vemurafenib + Tozasertib; first compound 0.3162 µM): 0.396
- relative viability (Vemurafenib + Tozasertib; first compound 1 µM): 0.358

Cell Line: NCI-H2126
- relative viability (Vemurafenib + Decitabine; first compound 0.03162 µM): 0.559
- relative viability (Vemurafenib + Decitabine; first compound 0.1 µM): 0.542
- relative viability (Vemurafenib + Decitabine; first compound 0.3162 µM): 0.599
- relative viability (Vemurafenib + Decitabine; first compound 1 µM): 0.552
- relative viability (Vemurafenib + Navitoclax; first compound 0.03162 µM): 0.808
- relative viability (Vemurafenib + Navitoclax; first compound 0.1 µM): 0.778
- relative viability (Vemurafenib + Navitoclax; first compound 0.3162 µM): 0.825
- relative viability (Vemurafenib + Navitoclax; first compound 1 µM): 0.83
- relative viability (OSI-027 + Linsitinib; first compound 0.01 µM): 0.739
- relative viability (OSI-027 + Linsitinib; first compound 0.03162 µM): 0.593
- relative viability (OSI-027 + Linsitinib; first compound 0.1 µM): 0.536
- relative viability (OSI-027 + Linsitinib; first compound 0.3162 µM): 0.416
- relative viability (OSI-027 + Linsitinib; first compound 1 µM): 0.701
- relative viability (Vemurafenib + Tozasertib; first compound 0.03162 µM): 0.812
- relative viability (Vemurafenib + Tozasertib; first compound 0.1 µM): 0.786
- relative viability (Vemurafenib + Tozasertib; first compound 1 µM): 0.809

Cell Line: LCLC-97TM1
- relative viability (Vemurafenib + Decitabine; first compound 0.1 µM): 0.236
- relative viability (Vemurafenib + Decitabine; first compound 0.3162 µM): 0.242
- relative viability (Vemurafenib + Decitabine; first compound 1 µM): 0.213
- relative viability (Vemurafenib + Navitoclax; first compound 0.03162 µM): 0.411
- relative viability (Vemurafenib + Navitoclax; first compound 0.1 µM): 0.371
- relative viability (Vemurafenib + Navitoclax; first compound 0.3162 µM): 0.533
- relative viability (Vemurafenib + Navitoclax; first compound 1 µM): 0.486
- relative viability (OSI-027 + Linsitinib; first compound 0.01 µM): 0.19
- relative viability (OSI-027 + Linsitinib; first compound 0.03162 µM): 0.182
- relative viability (OSI-027 + Linsitinib; first compound 0.1 µM): 0.139
- relative viability (OSI-027 + Linsitinib; first compound 0.3162 µM): 0.117
- relative viability (OSI-027 + Linsitinib; first compound 1 µM): 0.123
- relative viability (Vemurafenib + Tozasertib; first compound 0.03162 µM): 0.206
- relative viability (Vemurafenib + Tozasertib; first compound 0.1 µM): 0.268
- relative viability (Vemurafenib + Tozasertib; first compound 0.3162 µM): 0.269
- relative viability (Vemurafenib + Tozasertib; first compound 1 µM): 0.166

Cell Line: NCI-H2405
- relative viability (Vemurafenib + Decitabine; first compound 0.03162 µM): 0.668
- relative viability (Vemurafenib + Decitabine; first compound 0.1 µM): 0.678
- relative viability (Vemurafenib + Decitabine; first compound 1 µM): 0.736
- relative viability (Vemurafenib + Navitoclax; first compound 0.03162 µM): 0.836
- relative viability (Vemurafenib + Navitoclax; first compound 0.1 µM): 0.812
- relative viability (Vemurafenib + Navitoclax; first compound 1 µM): 0.864
- relative viability (OSI-027 + Linsitinib; first compound 0.01 µM): 0.871
- relative viability (OSI-027 + Linsitinib; first compound 0.03162 µM): 0.81
- relative viability (OSI-027 + Linsitinib; first compound 0.1 µM): 0.702
- relative viability (OSI-027 + Linsitinib; first compound 0.3162 µM): 0.404
- relative viability (OSI-027 + Linsitinib; first compound 1 µM): 0.393
- relative viability (Vemurafenib + Tozasertib; first compound 0.03162 µM): 0.756
- relative viability (Vemurafenib + Tozasertib; first compound 0.1 µM): 0.708
- relative viability (Vemurafenib + Tozasertib; first compound 1 µM): 0.717

Cell Line: COR-L 105
- relative viability (Vemurafenib + Decitabine; first compound 0.03162 µM): 0.556
- relative viability (Vemurafenib + Decitabine; first compound 0.3162 µM): 0.645
- relative viability (Vemurafenib + Decitabine; first compound 1 µM): 0.651
- relative viability (Vemurafenib + Navitoclax; first compound 0.03162 µM): 0.647
- relative viability (Vemurafenib + Navitoclax; first compound 0.3162 µM): 0.815
- relative viability (Vemurafenib + Navitoclax; first compound 1 µM): 0.841
- relative viability (OSI-027 + Linsitinib; first compound 0.01 µM): 1.07
- relative viability (OSI-027 + Linsitinib; first compound 0.03162 µM): 0.737
- relative viability (OSI-027 + Linsitinib; first compound 0.1 µM): 0.966
- relative viability (OSI-027 + Linsitinib; first compound 0.3162 µM): 0.749
- relative viability (OSI-027 + Linsitinib; first compound 1 µM): 0.431
- relative viability (Vemurafenib + Tozasertib; first compound 0.03162 µM): 0.394
- relative viability (Vemurafenib + Tozasertib; first compound 1 µM): 0.433

Cell Line: BEN
- relative viability (Vemurafenib + Decitabine; first compound 0.03162 µM): 0.577
- relative viability (Vemurafenib + Decitabine; first compound 0.1 µM): 0.756
- relative viability (Vemurafenib + Decitabine; first compound 0.3162 µM): 0.366
- relative viability (Vemurafenib + Decitabine; first compound 1 µM): 0.675
- relative viability (Vemurafenib + Navitoclax; first compound 0.03162 µM): 0.0514
- relative viability (Vemurafenib + Navitoclax; first compound 0.1 µM): 0.0623
- relative viability (Vemurafenib + Navitoclax; first compound 0.3162 µM): 0.0526
- relative viability (Vemurafenib + Navitoclax; first compound 1 µM): 0.0536
- relative viability (OSI-027 + Linsitinib; first compound 0.01 µM): 0.923
- relative viability (OSI-027 + Linsitinib; first compound 0.03162 µM): 0.613
- relative viability (OSI-027 + Linsitinib; first compound 0.1 µM): 0.627
- relative viability (OSI-027 + Linsitinib; first compound 0.3162 µM): 0.384
- relative viability (OSI-027 + Linsitinib; first compound 1 µM): 0.271
- relative viability (Vemurafenib + Tozasertib; first compound 0.03162 µM): 0.515
- relative viability (Vemurafenib + Tozasertib; first compound 0.1 µM): 0.52
- relative viability (Vemurafenib + Tozasertib; first compound 1 µM): 0.426

Cell Line: HCC-827
- relative viability (Vemurafenib + Decitabine; first compound 0.03162 µM): 0.27
- relative viability (Vemurafenib + Decitabine; first compound 0.3162 µM): 0.326
- relative viability (Vemurafenib + Decitabine; first compound 1 µM): 0.35
- relative viability (Vemurafenib + Navitoclax; first compound 0.03162 µM): 0.967
- relative viability (Vemurafenib + Navitoclax; first compound 0.3162 µM): 1
- relative viability (Vemurafenib + Navitoclax; first compound 1 µM): 1.02
- relative viability (OSI-027 + Linsitinib; first compound 0.01 µM): 0.979
- relative viability (OSI-027 + Linsitinib; first compound 0.03162 µM): 1.03
- relative viability (OSI-027 + Linsitinib; first compound 0.1 µM): 0.935
- relative viability (OSI-027 + Linsitinib; first compound 0.3162 µM): 0.943
- relative viability (OSI-027 + Linsitinib; first compound 1 µM): 0.552
- relative viability (Vemurafenib + Tozasertib; first compound 0.03162 µM): 0.397
- relative viability (Vemurafenib + Tozasertib; first compound 0.3162 µM): 0.42
- relative viability (Vemurafenib + Tozasertib; first compound 1 µM): 0.41

Cell Line: NCI-H3122
- relative viability (Vemurafenib + Decitabine; first compound 0.03162 µM): 0.429
- relative viability (Vemurafenib + Decitabine; first compound 0.1 µM): 0.485
- relative viability (Vemurafenib + Decitabine; first compound 0.3162 µM): 0.481
- relative viability (Vemurafenib + Decitabine; first compound 1 µM): 0.504
- relative viability (Vemurafenib + Navitoclax; first compound 0.03162 µM): 1.04
- relative viability (Vemurafenib + Navitoclax; first compound 0.1 µM): 0.993
- relative viability (Vemurafenib + Navitoclax; first compound 0.3162 µM): 1.02
- relative viability (Vemurafenib + Navitoclax; first compound 1 µM): 1.1
- relative viability (OSI-027 + Linsitinib; first compound 0.01 µM): 1.04
- relative viability (OSI-027 + Linsitinib; first compound 0.03162 µM): 1.04
- relative viability (OSI-027 + Linsitinib; first compound 0.1 µM): 1.07
- relative viability (OSI-027 + Linsitinib; first compound 0.3162 µM): 0.763
- relative viability (OSI-027 + Linsitinib; first compound 1 µM): 0.289
- relative viability (Vemurafenib + Tozasertib; first compound 0.03162 µM): 0.398
- relative viability (Vemurafenib + Tozasertib; first compound 0.1 µM): 0.335
- relative viability (Vemurafenib + Tozasertib; first compound 0.3162 µM): 0.371
- relative viability (Vemurafenib + Tozasertib; first compound 1 µM): 0.365
